Assay results: article PMC4277828 (BMC Pharmacology & Toxicology, 2014)
Where “and” joins values, the source holds several entries; their conditions need not be identical. Identical values can stand only once. Entries after “also recorded” stand apart in the source; their conditions may differ. Like-named read-outs stand apart in the source and are kept apart here. Marks after values point to notes of the source that are not given here.

How the values were obtained:
[1] = human, in vivo
[2] = in vivo, 300 mg
[3] = Tolerability and safety of rifabutin and LPV/r: clinical and laboratory adverse events (DAIDS grading)
clinical = conditions: human, plasma, oral, 300 mg
[4] = design: method as in PMID 15844071; conditions: cited from earlier work
[5] = Steady-state plasma pharmacokinetics of rifabutin and 25-O-desacetylrifabutin with and without LPV/r-based ART (three-period crossover, LC/MS/MS, non-compartmental analysis); conditions: for AUC(0-t): human, plasma, oral, median (interquartile range), n = 14
[6] = Steady-state plasma pharmacokinetics of lopinavir given with two rifabutin doses (LCMS/MS, non-compartmental analysis); conditions: for AUC(0-t): human, plasma, oral, Median (Interquartile range), 14 patients
[7] = RBT dose at time of AE 150 mg daily (with LPV/r ART), listed as RBT
[8] = RBT dose at time of AE 150 mg tiw (with LPV/r ART), listed as RBT
[9] = sixteen patients, all rifabutin doses

With 25-O-desacetylrifabutin [d-RBT] the “Association between plasma concentration and adverse events such as neutropenia or elevated transaminases” value [1] was “unable to show a significant association” and the “AUC0–48” value [2] was 546.6 (471.4-688.2)^* ng.h/mL.

With `CO[C@H]1/C=C/O[C@@]2(C)Oc3c(C)c(O)c4c(c3C2=O)C2=NC3(CCN(CC(C)C)CC3)NC2=C(NC(=O)/C(C)=C\C=C\[C@H](C)[C@H](O)[C@@H](C)[C@@H](O)[C@@H](C)[C@H](OC(C)=O)[C@@H]1C)C4=O` [Rifabutin, rifabutin] the “AE (grade 3 laboratory adverse event, individual subject)” value [3, 7] was “Neutropenia; also recorded: AST increased; also recorded: Amylase increased”, the “Days on RBT at grade 3 laboratory AE (individual subject)” value (from here on “Days on RBT at grade 3 laboratory AE”) [3, 7] was 53 days and 77 days and 106 days and 113 days and 57 days and the “AE (grade 3 laboratory adverse event, individual subject)” value [3, 8] was “AST increased; also recorded: Amylase increased; also recorded: Neutropenia”. The “Days on RBT at grade 3 laboratory AE” value [3, 8] was 96 days and 119 days and 112 days, the “AE (grade 3 laboratory adverse event, individual subject)” value ([3]; RBT dose at time of AE 300 mg daily) was “Neutropenia” and the “Days on RBT at grade 3 laboratory AE” value ([3]; RBT dose at time of AE 300 mg daily, listed as RBT) was 29 days and 27 days and 28 days. For the same molecule, the “Grade 4 laboratory toxicities / events” value ([3]; all doses, sixteen patients) was “no grade 4 laboratory toxicities”, the Tolerability ([3]; all doses, sixteen patients) was “well tolerated” and the “Grade 4 laboratory toxicities / events” value ([3]; all doses, sixteen patients, listed as rifabutin) was “no grade 4 laboratory events”. The “Association between plasma concentration and adverse events such as neutropenia or elevated transaminases” value ([3]; human, in vivo) was “unable to show a significant association”, the Uveitis ([3]; patient taking rifabutin 300 mg daily, after 1 month of rifabutin, prior to / coinciding with start of ART) was “One case of uveitis (grade 4); also recorded: Grade 2 uveitis occurred in one patient” and the Serious adverse events ([3]; sixteen patients) was “two serious adverse events (bacterial meningitis and pyelonephritis), both considered unrelated to rifabutin”. The “Grade 3 elevations in transaminases and amylase, number” value [3, 9] was 2, the “Grade 3 neutropenia, number of occasions” value [3, 9] was 7 occasions and the “Grade 3 neutropenia, number of patients” value [3, 9] was 4 patients and 5 patients. For the same molecule, the Cmax (clinical) was 292 ng/mL, the “Patients who relapsed or failed therapy that developed ARR” value ([4]; TB-HIV co-infected patients with AUC0–24 < 4.5 μg.h/mL) was 83% and the “Patients who relapsed or failed therapy that developed ARR” value ([4]; TB-HIV co-infected patients with AUC above the threshold of 4.5 μg.h/mL) was 33%. For the same molecule, the “GMR (90% CI) of Cmin24h” value ([5]; RBT 150 mg daily (with LPV/r ART) with RBT 300 mg daily) was 2.7 (2.2 – 3.2), the “GMR (90% CI) of Cmin24h” value ([5]; RBT 150 mg tiw (with LPV/r ART) with RBT 300 mg daily) was 1.2 (1.0 – 1.4) and the “GMR (90% CI) of Cmin24h” value ([5]; RBT 150 mg tiw with RBT 150 mg daily (both with LPV/r ART)) was 0.5 (0.4 – 0.5). The “Increase in AUC0–24” value ([5]; daily dose of 150 mg compared to the three times a week dose, both with LPV/r) was “more than two fold increase”, the AUC(0-t) ([5]; 150 mg, AUC0–24, Rifabutin 150 mg daily plus LPV/r, steady state) was 4770 ng·h/mL and the AUC(0-t) ([5]; 150 mg, AUC0–24, Rifabutin 150 mg tiw plus LPV/r, steady state) was 2310 ng·h/mL. For the same molecule, the AUC(0-t) ([5]; 150 mg, AUC0–48, Rifabutin 150 mg daily plus LPV/r, calculated by 2X AUC0–24) was 9530 ng·h/mL, the AUC(0-t) ([5]; 300 mg, AUC0–24, Rifabutin 300 mg daily without LPV/r, steady state) was 3050 ng·h/mL and the AUC(0-t) ([5]; 300 mg, AUC0–48, Rifabutin 300 mg daily without LPV/r, calculated by 2X AUC0–24) was 6110 ng·h/mL. For the same molecule, the “Patients with AUC0–24 values >4.5 μg.h/mL” value ([5]; rifabutin 150 mg daily with LPV/r) was 71%, the “Patients with AUC0–24 values >4.5 μg.h/mL” value ([5]; rifabutin tiw dosing with LPV/r) was 14% and the “Patients with AUC0-24 < 4.5 μg.h/mL” value ([5]; tiw rifabutin arm (150 mg tiw with LPV/r)) was 86%.

With `Cc1cccc(C)c1OCC(=O)N[C@@H](Cc1ccccc1)[C@@H](O)C[C@H](Cc1ccccc1)NC(=O)[C@H](C(C)C)N1CCCNC1=O` [lopinavir] the “Median lopinavir trough (C0) concentrations versus recommended lower limit for ART-naïve patients” value ([6]; both rifabutin doses) was greater than 1 µg, the AUC(0-t) ([6]; AUC0–12, RBT 150 mg daily plus LPV/r (400/100 mg)) was 160 µg·h/mL and the AUC(0-t) ([6]; AUC0–12, RBT 150 mg tiw plus LPV/r (400/100 mg)) was 140 µg·h/mL. For the same molecule, the “Differences in AUC0–12 and Cmax between the two doses of rifabutin” value ([6]; rifabutin 150 mg daily versus 150 mg tiw) was “not significant”.
